What was measured:
OVCAR3 = assay: MTT cytotoxicity assay, OVCAR3; format: cell-based; settings: OVCAR3, ovarian, 72 hr, read-out: IC50, cell killing
Experimental: (§1) All cell lines were obtained from the American Type Culture Collection (ATCC) and cultured in the specified medium supplemented with 10% fetal bovine serum, 100 IU/mL penicillin, and 100 μg/mL streptomycin at 37° C. in a humidified 5% CO2/95% air incubator. To assess drug cytotoxicity cells were seeded at 2,500 cells/well (10,000 cells/well for MM lines and primary cells) in 100 μL medium in 96-well plate. […]
(§2) It was examined whether the RPN13 inhibitor, RA475, was cytotoxic for cancer cell lines using the MTT assay.

SUM149 = assay: MTT cytotoxicity assay, SUM149; format: cell-based; settings: SUM149, breast, 72 hr, read-out: IC50, cell killing
Experimental: as §1, §2

HCC1806 = assay: MTT cytotoxicity assay, HCC1806; format: cell-based; settings: HCC1806, breast, 72 hr, read-out: IC50, cell killing
Experimental: as §1, §2

MDA-MB-468 = assay: MTT cytotoxicity assay, MDA-MB-468; format: cell-based; settings: MDA-MB-468, breast, 72 hr, read-out: IC50, cell killing
Experimental: as §1, §2

[1] = test system: human foreskin fibroblasts (HFF); assay: MTT cytotoxicity assay, human foreskin fibroblasts; format: cell-based; settings: non-transformed human foreskin fibroblasts, 72 hr, highest concentration tested 2.5 μM, read-out: IC50, cell killing
Experimental: as §1, §2

4T1 = assay: MTT cytotoxicity assay, 4T1; format: cell-based; settings: 4T1, breast (TNBC), 72 hr, read-out: IC50, cell killing
Experimental: as §1, §2

PACS = assay: MTT cytotoxicity assay, PACS; format: cell-based; settings: ovarian (mouse), 72 hr, read-out: IC50, cell killing
Experimental: as §1, §2

Br23C = assay: MTT cytotoxicity assay, Br23C; format: cell-based; settings: glioblastoma multiforme, 72 hr, read-out: IC50, cell killing
Experimental: as §1, §2

CD-1 mice = assay: Single-dose tolerability in CD-1 mice; format: in vivo, mouse
Experimental: All animal procedures were performed according to protocols approved by the Johns Hopkins University Animal Care and Use Committee, and in accordance with the AAALAC recommendations for the proper use and care of laboratory animals (protocol MO15M375, renewed as MO18M129). Four to six week old female CD-1 mice were purchased from Jackson Laboratories (ME, USA). Isoflurane anesthesia was used during imaging. The health conditions and/or criteria under which early euthanasia or withdrawal of an animal from the study was implemented included, but are not limited to, general signs of distress such as hunched posture, lethargy, anorexia, dehydration, rough hair coat and/or those that are directly related to the experimental procedures e.g. loss of weight >10%, lethargy, restricted movement of limbs, distended abdomen. Animals in distress were euthanized by carbon dioxide asphyxiation, and cervical dislocation was used to ensure death. This is an acceptable form of euthanasia for mice and in compliance with the recommendations of the Panel on Euthanasia of the American Veterinary Medical Association.
RA475 powder was directly dissolved in 25% β-hydroxy propyl cyclodextrin as a clear solution and administered at increasing single doses to CD-1 mice (n=3) via intraperitoneal injection.

[2] = molecular target: T1, 42 kDa cellular protein, consistent with RPN13 (Homo sapiens, UniProt Q16186); assay: Up284B competitive labeling assay in SKOV3 or ES2 cell lysates; format: binding; settings: pre-cleared SKOV3 or ES2 lysates, 45 min at 4° C., then 5 μM Up284B
T1 construct: endogenous in cells; host or cells: SKOV3 or ES2 cell lysates, pre-cleared with streptavidin-coated beads
Experimental: Clarified cell lysate (40 ug/sample) in MPER buffer was pretreated with streptavidin-coated magnetic beads for 45 min at 4° C. to deplete non-specific biotinylated proteins in the cell lysate. […] Next, the samples were mixed with Laemmli sample buffer (BioRad) and boiled for 5 min. The proteins were separated using a 4-15% Bio-Rad Mini-PROTEAN SDS-PAGE gel (1 hr at 100 V), and transferred to PVDF membrane overnight at 4° C. (24 V). The membrane was blocked with 5% BSA in PBST for 1 hr at RT and washed for 20 minutes (3× with PBST). Then the membrane was probed with HRP-streptavidin (1:10,000 in PBST) for 1 hr at RT, washed for 30 min (3× with PBST), and developed using HyGLO chemiluminescent detection reagent (Denville) for biotin detection.
Briefly SKOV3 or ES2 cell lysates were first pre-cleared with streptavidin-coated beads to deplete endogenous biotinylated proteins. The pre-cleared lysates were then divided into equal aliquots. […] The lysates were then boiled in gel sample buffer, separated by SDS-PAGE, and transferred to a PVDF membrane.

[3] = test system: high molecular weight polyubiquitinated proteins in SKOV3 cells; assay: Western blot for polyubiquitinated proteins, SKOV3 cells; format: cell-based; settings: 12 hr, Up284 and RA475 0.5 and 1 μM, RA190 1 μM
Experimental: Cell lysate (10-20 μg total protein) prepared in MPER (Pierce) from each sample was subjected to SDS-PAGE, transferred to PVDF membranes and analyzed by Western blot using antibodies specific for ubiquitin (P4D1, sc-8017, Santa Cruz), or after stripping antibody for actin (#66009, Protein Tech Group), at the dilutions recommended by the manufacturers, and for secondary antibodies either peroxidase-linked anti-mouse IgG or anti-rabbit IgG (GE Healthcare UK Ltd) were utilized at the recommended dilution. The blots were developed using HyGLO chemiluminescent detection reagent (Denville).
Like RA190, RA475 was designed to be an inhibitor of upstream 19S RP proteasome function. […] Treatment with the same doses of Up284 (0.5 and 1 μM) or 1 μM RA190 provided positive controls, and vehicle alone (DMSO) was used as the negative control. At the end of the incubation, attached cells were lysed using MPER buffer according to the manufacturer's protocol. The lysates were subjected to Western blot analysis using antibody to ubiquitin, and then stripped and re-probed with actin antibody to provide a loading control (FIG. 5).
Proteasome inhibitors cause a rapid accumulation of polyUb proteins that is associated with unresolved UPR stress and the induction of apoptosis. Since RA475 is cytotoxic to ovarian cancer cells (Table 1), and induces such a rapid accumulation of polyUb proteins (FIG. 5), it was examined whether RA475 also triggered apoptosis. SKOV3 cells (FIG. 5A) were treated with Up284 (0.5 μM and 1 μM), 1 μM RA190, RA475 (0.5 μM and 1 μM) or vehicle alone (DMSO) and then cultured for 12 hr. OVCAR3 cells (FIG. 5B) were treated with Up284 (0.5 μM), Bortezomib (Bz, 0.25 μM), Ixazomib (Iz, 0.25 μM), RA475 (0.5 μM and 1 μM) or vehicle alone (DMSO). The attached cells were harvested and their lysates were subjected to Western blot analysis, first probed with antibody to ubiquitin and then to actin.

[4] = Solubility compared with RA190; format: physicochemical; settings: compared with prototypic RPN13 inhibitor RA190

T1 sequence (Q16186 whole entry): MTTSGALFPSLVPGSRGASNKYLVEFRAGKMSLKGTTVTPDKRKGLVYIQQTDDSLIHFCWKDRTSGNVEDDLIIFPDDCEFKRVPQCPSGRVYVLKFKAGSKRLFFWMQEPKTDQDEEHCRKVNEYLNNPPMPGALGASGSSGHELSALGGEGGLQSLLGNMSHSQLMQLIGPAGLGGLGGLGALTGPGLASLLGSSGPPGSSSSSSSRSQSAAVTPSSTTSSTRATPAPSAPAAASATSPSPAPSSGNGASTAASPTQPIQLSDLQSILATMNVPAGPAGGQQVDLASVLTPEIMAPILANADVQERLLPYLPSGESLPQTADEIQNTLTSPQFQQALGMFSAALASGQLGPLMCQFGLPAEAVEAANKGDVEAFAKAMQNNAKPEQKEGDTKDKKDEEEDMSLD

Row | Structure (SMILES) | IC50 (OVCAR3) [nM] | IC50 (SUM149) [nM] | IC50 (HCC1806) [nM] | IC50 (MDA-MB-468) [nM] | IC50 [1] [nM] | IC50 (4T1) [nM] | IC50 (PACS) [nM] | IC50 (Br23C) [nM] | NOAEL (CD-1 mice; single dose, intraperitoneal, 80 mg/Kg highest dose level tested) [mg/kg] | adverse events (CD-1 mice; single i.p. doses at or below 80 mg/Kg) | competition with binding of Up284B probe to RPN13 [2] | accumulation of polyUb proteins [3] | solubility relative to RA190 [4]
1 | Cl.Cl.N#Cc1ccc(/C=C2/C(=O)/C(=C/c3ccc(C#N)cc3)C23CCN(C(=N)N)CC3)cc1 [RA475] | 190 | 100 | 113 | 292 | > 2500 | 261 | 581 | 750 | > 80 | No evidence of adverse events, including weight loss | dose-dependently competed | very significant increase in a dose-dependent manner | better solubility
2 | N#Cc1ccc(/C=C2/C(=O)/C(=C/c3ccc(C#N)cc3)C23CCNCC3)cc1 [Up284, reference compound] |  |  |  |  |  |  |  |  |  |  |  | profound accumulation | 

— patent US12410141B2, “Anti-cancer spirocyclic-guanidine compounds and uses thereof” (The Johns Hopkins University, priority 2020, dated 2025)
